# Source: article PMC10305181, “A VEGFB-Based Peptidomimetic Inhibits VEGFR2-Mediated PI3K/Akt/mTOR and PLCγ/ERK Signaling and Elicits Apoptotic, Antiangiogenic, and Antitumor Activities” (Pharmaceuticals, 2023)
# Bridge positions count the residues as written; N and C are the ends. Peptide text beside a SMILES is read from it.
# How the values were obtained:
# [1] = tested on: signaling proteins in 4T1 MCT cells; test: Western blot analysis, 4T1 cells; type: cell-based, murine
# Procedure: Next, VEGFR2 signaling was investigated in 4T1 MCTs. […] Considering the implication of the PI3K/AKT/mTOR signaling pathway in most human cancers, the effect of C-VGB3 on this pathway was evaluated in 4T1 MCT cells. […] The NF-κB pathway is an important target of AKT, which contributes to abnormal cell proliferation and differentiation, the inhibition of apoptosis, enhanced metastasis, and treatment resistance. Therefore, the inhibition of upstream AKT signaling would be expected to downregulate NF-κB and/or p-NF-κB.
# The levels of signaling proteins were investigated by the Western blot assay. 4T1 and HUVE cells stimulated by VEGF (20 ng·mL^−1) were treated with (0.40 μM) or without C-VGB3 (treatment and control groups, respectively) after starvation in a serum-free medium for 24 h. After washing with PBS buffer twice, the cells were treated with RIPA lysis buffer containing (Sigma, St. Louis, MO, USA). Bradford′s test was performed to estimate the protein concentration. Equal amounts of total protein were electrophoresed on a 10% SDS-polyacrylamide gel, separated, and then transferred to a nitrocellulose membrane. Nitrocellulose was soaked in a blocking buffer containing 5% dry milk, Tris-buffered saline, and Tween 20 (TBST) for 1 h at ambient temperature. The nitrocellulose membrane was then washed with wash buffer and treated with antibodies against VEGFR2 p-VEGFR2, AKT, p-AKT, PI3K, mTOR, p-mTOR, NF-κB, p-NFκB, P53, MDM2, Bax, Bcl2, Bid, Bim, Apaf-1, cytochrome c, caspase-9, Fas (CD95), DR4 (CD261), DR5 (CD262), caspase3, caspase7, caspase8, PARP1, ERK 1/2, p-ERK1/2, Ras, Raf, Cdk4, GSK-3β, cyclin D1, vimentin, N-cadherin, E-cadherin, FAK, p-FAK, paxillin, p-paxillin, and β-actin overnight at 4 °C. The next steps were performed as described previously. Because molecular weight ranges of target signaling proteins are very close, individual gels were run for separate signaling proteins (Figure S7).
# HUVECs = test: tube formation assay on Matrigel, HUVECs; type: cell-based, human; conditions: 0.40 μM; 12 h; VEGF 20 ng·mL^−1; n = 3; p < 0.001
# Procedure: Figure 4 Inhibition of EC proliferation and tubulogenesis by C-VGB3 through abrogation of VEGFR2-mediated signaling pathways. (A) MTT assay was performed to investigate C-VGB3 effect on the proliferation of ECs. C-VGB3 (0–0.91 μM) was used with (20 ng·mL^−1) or without VEGF. The control cells were treated with no peptide. After 24 and 48 h, the absorbance was measured at 570 nm utilizing an ELISA plate reader (Space Fax 2100, Awareness, Westport, CT, USA). Error bars indicate ± SEM. n = 3; * p = 0.02, ** p = 0.001, *** and ### p = 0.0001, **** and #### p < 0.0001, ns = not significant; one-way ANOVA. (B) The anti-tubulogenesis effect of C-VGB3 in VEGF (20 ng·mL^−1)-induced HUVECs. Image analysis performed by Wimasis image analysis software is illustrated in the bottom panel. Error bars indicate ±SEM. n = 3; *** 0.0004 ≤ p ≤ 0.0001; unpaired Student’s t-test. To evaluate the mechanism by which C-VGB3 diminished cell proliferation and tube formation, Western blot analysis was performed for HUVECs. […] Error bars indicate ± SEM. n = 3; * p = 0.02, ** p = 0.001, *** p = 0.0001, **** p < 0.0001; one-way ANOVA. […] Error bars indicate ± SEM. n = 3; * p = 0.02, ** p = 0.001, **** p < 0.0001; one-way ANOVA.
# Tube formation of HUVECs was assayed on the Matrigel. After pre-labeling with PKH26 cell tracker (Sigma-Aldrich, St. Louis, MO, USA) HUVECs were plated into 24-well plates pre-coated with Matrigel Basement Membrane Matrix (BD Biosciences, San Jose, CA, USA). C-VGB3 (0.40 μM) was added to the medium, and images were manually captured after 12 h using an Olympus BX-51 fluorescence microscope. Quantitative analyses were performed by Wimasis online software.
smiles,measurement,setting,value
CC(C)C[C@@H]1NC(=O)CNC(=O)[C@H](CC(=O)O)NC(=O)[C@H](CC(=O)O)NC(=O)[C@@H]2CCCN2C(=O)[C@@H]2CCCN2C(=O)[C@H](CCCNC(=N)N)NC(=O)[C@@H](NC(=O)[C@@H](N)CCC(=O)O)CSSC[C@@H](C(=O)O)NC1=O [C-VGB3] (H-ECRPPDDGLC-OH; disulfide 2-10),increase in cleaved PARP1,"[1]; 4T1 (second of 'respectively'), 0.40 μM, p < 0.0001",4.05 fold
same,Fas expression,"[1]; 4T1, 0.40 μM",not affected
same,increase in Bax/Bcl2 ratio,"[1]; 4T1, 0.40 μM",~5.25 fold
same,increased level of cleaved caspase-3,"[1]; 4T1, 0.40 μM",4.0 times
same,increased level of cleaved caspase-7,"[1]; 4T1, 0.40 μM",4.1 times
same,increased level of cleaved caspase-9,"[1]; 4T1, 0.40 μM",3.5 times
same,Bax level,"[1]; 4T1, 0.40 μM, p < 0.0001",increased
same,DR4 level,"[1]; 4T1, 0.40 μM, p < 0.0001",increase
same,MDM2 level,"[1]; 4T1, 0.40 μM, p < 0.0001",markedly decreased
same,P53 level,"[1]; 4T1, 0.40 μM, p < 0.0001",enormously increased
same,VEGFR2 level,"[1]; 4T1, 0.40 μM, p < 0.0001",suppressed
same,paxillin,"[1]; 4T1, 0.40 μM, p < 0.0001",substantially inhibited
same,p-VEGFR2 level,"[1]; 4T1, 0.40 μM, p = 0.0001",suppressed
same,p-paxillin,"[1]; 4T1, 0.40 μM, p = 0.0001",substantially inhibited
same,Apaf-1,"[1]; 4T1, 0.40 μM, p = 0.001",promoted
same,Bcl2 expression,"[1]; 4T1, 0.40 μM, p = 0.001",decrease
same,Bid expression level,"[1]; 4T1, 0.40 μM, p = 0.001",increased
same,DR5 level,"[1]; 4T1, 0.40 μM, p = 0.001",increase
same,E-cadherin expression,"[1]; 4T1, 0.40 μM, p = 0.001",potently increased
same,FAK,"[1]; 4T1, 0.40 μM, p = 0.001",substantially inhibited
same,N-cadherin level,"[1]; 4T1, 0.40 μM, p = 0.001",reduced
same,p-AKT level,"[1]; 4T1, 0.40 μM, p = 0.001",significantly decreased
same,p-FAK,"[1]; 4T1, 0.40 μM, p = 0.001",substantially inhibited
same,p-mTOR level,"[1]; 4T1, 0.40 μM, p = 0.001",significantly decreased
same,Bim level,"[1]; 4T1, 0.40 μM, p = 0.02",increased
same,NF-κB level,"[1]; 4T1, 0.40 μM, p = 0.02",decreased levels
same,PI3K level,"[1]; 4T1, 0.40 μM, p = 0.02",significantly decreased
same,cytochrome c release,"[1]; 4T1, 0.40 μM, p = 0.02",promoted
same,mTOR level,"[1]; 4T1, 0.40 μM, p = 0.02",significantly decreased
same,p-NF-κB level,"[1]; 4T1, 0.40 μM, p = 0.02",decreased levels
same,vimentin level,"[1]; 4T1, 0.40 μM, p = 0.02",reduced
same,decrease in tube branching points,HUVECs,81.46%
same,decrease in tube length,HUVECs,44.37%
same,decrease in tube numbers,HUVECs,58.64%
